In patent US9034899B2, “Aryl, heteroaryl, and heterocycle substituted tetrahydroisoquinolines and use thereof” (Albany Molecular Research, Inc., priority 2009, dated 2015):
Read-outs that look alike come from different tables or passages of the source.

How the values were obtained:
hNET = hNET (Homo sapiens (Human), UniProt P23975); assay: NET radioligand binding assay ([3H]nisoxetine, HEK-293 membranes); conditions: for IC50: (+)-enantiomers; for inhibition at 0.1 µM: 100 nM, NET IC50 with footnote *
Sequence of hNET (P23975 whole entry): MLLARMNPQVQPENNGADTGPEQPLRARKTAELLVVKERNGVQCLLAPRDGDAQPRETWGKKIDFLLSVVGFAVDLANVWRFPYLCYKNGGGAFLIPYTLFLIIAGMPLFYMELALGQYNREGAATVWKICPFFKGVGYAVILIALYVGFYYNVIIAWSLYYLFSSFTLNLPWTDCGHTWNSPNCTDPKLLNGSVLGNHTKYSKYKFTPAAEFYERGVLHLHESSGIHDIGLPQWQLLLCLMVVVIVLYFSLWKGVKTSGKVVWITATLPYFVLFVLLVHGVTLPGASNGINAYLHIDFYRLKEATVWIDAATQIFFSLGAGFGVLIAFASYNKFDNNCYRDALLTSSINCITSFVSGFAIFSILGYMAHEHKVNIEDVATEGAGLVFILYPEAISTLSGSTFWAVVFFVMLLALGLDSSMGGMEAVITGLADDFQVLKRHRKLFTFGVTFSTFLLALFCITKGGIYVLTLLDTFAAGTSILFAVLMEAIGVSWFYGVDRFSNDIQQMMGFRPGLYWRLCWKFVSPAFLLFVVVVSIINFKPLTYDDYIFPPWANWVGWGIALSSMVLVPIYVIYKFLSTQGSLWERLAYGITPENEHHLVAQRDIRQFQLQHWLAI
Procedure: (§1) Recombinant HEK-293 cells expressing either the hSERT, hDAT, or hNET proteins were harvested from T-175 flasks as follows. The medium was removed from the flasks and the cells rinsed with HBSS without Ca and without Mg. The cells were then incubated for 5-10 minutes in 10 mM Tris-Cl, pH 7.5, 5 mM EDTA before the cells were lifted with a combination of pipetting and scraping, as needed. The cell suspension was collected into centrifuge bottles and homogenized for 30 seconds with a Polytron homogenizer. The suspension was centrifuged for 30 minutes at 32,000×g, 4° C. The supernatant was decanted and the pellet resuspended and homogenized in 50 mM Tris-Cl, pH 7.5, 1 mM EDTA for 10 seconds. The suspension was then centrifuged again for 30 minutes at 32,000×g, 4° C. The supernatant was decanted and the pellet resuspended in 50 mM Tris-Cl, pH 7.5, 1 mM EDTA and briefly homogenized. A Bradford assay (Bio-rad) was performed and the membrane preparation diluted to 2 mg/ml with 50 mM Tris-Cl, pH 7.5, 1 mM EDTA. Aliquots were prepared, and then frozen and stored at −80° C.
(§2) Compounds were dissolved in 100% DMSO at a concentration 100 times the desired highest assay concentration, serially diluted 1:3 in 100% DMSO, and 1.0 μl/well of each solution was dispensed to a Nunc polypropylene, round bottom, 384-well plate. 100% inhibition is defined with 1.0 μl/well of 10 mM desipramine dissolved in DMSO. 50 μl/well of a 2× membrane preparation (0.4 mg/ml in 50 mM Tris-Cl, pH 7.5, 120 mM NaCl, 5 mM KCl) and 50 μl/well of a 2× radioligand solution (4 nM [^3H]nisoxetine in 50 mM Tris-Cl, pH 7.5, 120 mM NaCl, 5 mM KCl) were added to the well and the reaction incubated for 1 hour at room temperature. The contents of the assay plate were then transferred to a Millipore MultiscreenHTS GF/B filter plate which was pretreated with 0.5% PEI for at least one hour. The plate was vacuum filtered and washed with 7 washes of 100 μl/well 50 mM Tris-Cl, pH 7.5, 120 mM NaCl, 5 mM KCl chilled to 4° C. The filtration and washing were completed in less than 90 seconds. The plates were air-dried overnight, 12 μl/well of MicroScint scintillation fluid added, and the plates counted in a Trilux.
(§3) The raw data was normalized to percent inhibition using control wells defining 0% (DMSO only) and 100% (selective inhibitor) inhibition which were run on each plate. Each plate was run in triplicate, and the concentration response curve thus generated was fit using the four-parameter dose response equation, Y=Bottom+(Top-Bottom)/(1+10^((LogIC50−X)*HillSlope)) in order to determine the IC50 value for each compound. The radioligand concentration chosen for each assay corresponds to the Kd concentration determined through saturation binding analysis for each assay.

hDAT = hDAT (Homo sapiens (Human), UniProt Q01959); assay: DAT radioligand binding assay ([125I]RTI-55, HEK-293 membranes); conditions: for inhibition at 0.1 µM: 100 nM, DAT IC50 with footnote *
Sequence of hDAT (Q01959 whole entry): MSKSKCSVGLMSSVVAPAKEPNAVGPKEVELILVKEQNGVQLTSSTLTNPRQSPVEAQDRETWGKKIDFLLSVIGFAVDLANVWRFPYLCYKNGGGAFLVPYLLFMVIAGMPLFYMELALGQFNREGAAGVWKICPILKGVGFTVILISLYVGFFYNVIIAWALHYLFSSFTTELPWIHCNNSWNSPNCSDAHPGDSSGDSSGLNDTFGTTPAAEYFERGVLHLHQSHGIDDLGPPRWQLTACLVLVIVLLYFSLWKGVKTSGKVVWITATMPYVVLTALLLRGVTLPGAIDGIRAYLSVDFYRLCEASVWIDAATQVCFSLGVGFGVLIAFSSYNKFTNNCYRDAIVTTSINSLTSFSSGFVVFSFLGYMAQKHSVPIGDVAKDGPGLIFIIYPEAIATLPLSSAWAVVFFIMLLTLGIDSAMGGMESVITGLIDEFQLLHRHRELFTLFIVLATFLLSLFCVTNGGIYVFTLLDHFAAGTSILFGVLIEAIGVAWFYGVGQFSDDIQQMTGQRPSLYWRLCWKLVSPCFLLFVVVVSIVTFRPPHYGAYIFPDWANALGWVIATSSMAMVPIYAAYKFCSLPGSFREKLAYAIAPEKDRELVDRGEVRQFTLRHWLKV
Procedure: as §1
Compounds were dissolved in 100% DMSO at a concentration 100 times the desired highest assay concentration, serially diluted 1:3 in 100% DMSO, and 0.4 μl/well of each solution was dispensed to a Nunc polypropylene, round bottom, 384-well plate. 100% inhibition is defined with 0.4 μl/well of 1 mM GBR-12935 dissolved in DMSO. 20 ul/well of a 2× membrane preparation (12.5 μg/ml in 30 mM sodium phosphate buffer, pH 7.9 at 4° C.) and 20 μl/well of a 2× radioligand solution ([…] [^125I]RTI-55 in 30 mM sodium phosphate buffer, pH 7.9 at 4° C.) were added to the well and the reaction incubated for 1 hour at room temperature. The contents of the assay plate were then transferred to a Millipore MultiscreenHTS GF/B filter plate which was pretreated with 0.5% PEI for at least one hour. The plate was vacuum-filtered and washed with 7 washes of 100 μl/well 50 mM Tris-Cl, pH 7.5, 120 mM NaCl, 5 mM KCl chilled to 4° C. The filtration and washing were completed in less than 90 seconds. The plates were air-dried overnight, 12 μl/well of MicroScint scintillation fluid added, and the plates counted in a Trilux.
as §3

hSERT = hSERT (Homo sapiens (Human), UniProt P31645); assay: SERT radioligand binding assay ([125I]RTI-55, HEK-293 membranes); conditions: for inhibition at 0.1 µM: 100 nM, SERT IC50 with footnote *
Sequence of hSERT (P31645 whole entry): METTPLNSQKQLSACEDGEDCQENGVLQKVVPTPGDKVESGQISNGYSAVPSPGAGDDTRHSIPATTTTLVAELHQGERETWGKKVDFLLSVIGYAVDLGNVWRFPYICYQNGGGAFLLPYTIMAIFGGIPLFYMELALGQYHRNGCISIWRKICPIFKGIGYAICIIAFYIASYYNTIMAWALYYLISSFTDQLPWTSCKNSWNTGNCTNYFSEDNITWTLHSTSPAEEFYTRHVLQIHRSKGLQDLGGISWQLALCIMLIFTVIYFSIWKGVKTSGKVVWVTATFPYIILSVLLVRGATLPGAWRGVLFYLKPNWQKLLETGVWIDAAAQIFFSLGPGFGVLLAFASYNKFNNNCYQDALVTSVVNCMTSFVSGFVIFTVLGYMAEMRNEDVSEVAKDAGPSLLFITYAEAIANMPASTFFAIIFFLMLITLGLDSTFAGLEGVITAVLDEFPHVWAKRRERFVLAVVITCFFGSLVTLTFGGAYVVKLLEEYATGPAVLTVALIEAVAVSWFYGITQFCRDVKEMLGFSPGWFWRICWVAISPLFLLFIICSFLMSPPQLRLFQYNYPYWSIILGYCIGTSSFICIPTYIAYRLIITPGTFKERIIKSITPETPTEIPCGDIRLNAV
Procedure: as §1, with “The” for “Recombinant HEK-293 cells expressing either the hSERT, hDAT, or hNET proteins were harvested from T-175 flasks as follows. The”
as §2, with “0.4” for “1.0”, “100% inhibition is defined with 1.0 μl/well of 10 mM desipramine dissolved in DMSO. 50 μl/well of a 2× membrane preparation (0.4 mg/ml in 50 mM Tris-Cl, pH 7.5, 120 mM NaCl, 5 mM KCl) and 50 μl/well of a 2× radioligand solution (4 nM [^3H]nisoxetine in 50 mM Tris-Cl, pH 7.5, 120 mM NaCl, 5 mM KCl) were added to the well and the reaction incubated for 1 hour at room temperature.” left out
as §3, with “Each” for “The raw data was normalized to percent inhibition using control wells defining 0% (DMSO only) and 100% (selective inhibitor) inhibition which were run on each plate. Each”

[1] = (+)-enantiomers, read-out: DAT IC50
[2] = (+)-enantiomers, read-out: SERT IC50

CC1(C)NCC(c2ccc(Cl)c(Cl)c2)c2ccc(-c3ccc(C(F)(F)F)nn3)cc21 (single isomer, unassigned) [Example 10, 4-(3,4-dichlorophenyl)-7-(6-(trifluoromethyl)pyridazin-3-yl)-1,1-dimethyl-1,2,3,4-tetrahydroisoquinoline]
IC50 (hNET): 549 nM

CC1(C)NCC(c2ccc(Cl)cc2)c2ccc(-c3ccc(C(F)(F)F)nn3)cc21 (single isomer, unassigned) [Example 35, 4-(4-chlorophenyl)-1,1-dimethyl-7-(6-(trifluoromethyl)pyridazin-3-yl)-1,2,3,4-tetrahydroisoquinoline]
IC50 (hDAT): 80.2 nM | IC50 (hSERT): 61.1 nM | IC50 (hNET): 1020 nM

CNc1ccc(-c2ccc3c(c2)CNCC3c2ccc(F)cc2)nn1 (single isomer, unassigned; (+)) [Example 3, (+)-6-(4-(4-fluorophenyl)-1,2,3,4-tetrahydroisoquinolin-7-yl)-N-methylpyridazin-3-amine]
IC50 (hDAT; [1]): 90.5 nM | IC50 (hSERT; [2]): 53.8 nM | IC50 (hNET): 150 nM

FC(F)(F)c1ccc(-c2ccc3c(c2)NCCC3c2ccc(Cl)cc2)nn1 (single isomer, unassigned; (+)) [Example 4, (+)-4-(4-chlorophenyl)-7-(6-(trifluoromethyl)pyridazin-3-yl)-1,2,3,4-tetrahydroquinoline]
IC50 (hDAT; [1]): 138 nM | IC50 (hSERT; [2]): 21.4 nM | IC50 (hNET): 47.3 nM

Nc1ccc(-c2ccc3c(c2)CNCC3c2ccc(Cl)cc2)nn1 (single isomer, unassigned; (+)) [Example 5, (+)-6-(4-(4-chlorophenyl)-1,2,3,4-tetrahydroisoquinolin-7-yl)pyridazin-3-amine]
IC50 (hDAT; [1]): 31.2 nM | IC50 (hSERT; [2]): 15.8 nM | IC50 (hNET): 63.1 nM

Fc1cc2c(cc1-c1ccc(C(F)(F)F)nn1)CNCC2c1ccc(Cl)c(Cl)c1 (single isomer, unassigned; (+)) [Example 29, (+)-4-(3,4-dichlorophenyl)-6-fluoro-7-(6-(trifluoromethyl)pyridazin-3-yl)-1,2,3,4-tetrahydroisoquinoline]
IC50 (hDAT; [1]): 78.3 nM | IC50 (hSERT; [2]): 29.7 nM | IC50 (hNET): 34.1 nM

Fc1cc2c(cc1-c1ccc(OC(F)F)nn1)CNCC2c1ccc(Cl)c(Cl)c1 (single isomer, unassigned; (+)) [Example 31, (+)-4-(3,4-dichlorophenyl)-7-(6-(difluoromethoxy)pyridazin-3-yl)-6-fluoro-1,2,3,4-tetrahydroisoquinoline]
IC50 (hDAT; [1]): 33 nM | IC50 (hSERT; [2]): 15.9 nM | IC50 (hNET): 9.8 nM

Fc1cc2c(cc1-c1ccc3ncnn3c1)CNCC2c1ccc(Cl)c(Cl)c1 (single isomer, unassigned; (+)) [Example 39, (+)-7-([1,2,4]triazolo[1,5-a]pyridin-6-yl)-4-(3,4-dichlorophenyl)-6-fluoro-1,2,3,4-tetrahydroisoquinoline]
IC50 (hDAT; [1]): 83.2 nM | IC50 (hSERT; [2]): 14.1 nM | IC50 (hNET): 70.4 nM

Cc1ccc(C2CCNc3cc(-c4ccc(C)nn4)ccc32)cc1 (stereo not shown) [Example 1, 7-(6-methylpridazin-3-yl)-4-p-tolyl-1,2,3,4-tetrahydroquinoline]
IC50 (hDAT; [1]): 64.5 nM | IC50 (hSERT; [2]): 27.9 nM | IC50 (hNET): 174 nM

Nc1ccc(-c2ccc3c(c2)CNCC3c2ccc(F)cc2)nn1 (stereo not shown) [Example 2, 6-(4-(4-fluorophenyl)-1,2,3,4-tetrahydroisoquinolin-7-yl)pyridazin-3-amine]
IC50 (hDAT; [1]): 89.4 nM | IC50 (hSERT; [2]): 144 nM | IC50 (hNET): 360 nM

CC1NCC(c2ccc(Cl)cc2)c2ccc(-c3ccc(Cl)nn3)cc21 (stereo not shown) [Example 6, 4-(4-Chloro-phenyl)-7-(6-chloro-pyridazin-3-yl)-1-methyl-1,2,3,4-tetrahydro-isoquinoline]
inhibition at 0.1 µM (hDAT): 9% | inhibition at 0.1 µM (hSERT): 35% | inhibition at 0.1 µM (hNET): 0%

CC1NCC(c2ccc(Cl)cc2)c2ccc(-c3cccnn3)cc21 (stereo not shown) [Example 7, 4-(4-Chloro-phenyl)-7-(pyridazin-3-yl)-1-methyl-1,2,3,4-tetrahydro-isoquinoline]
inhibition at 0.1 µM (hDAT): 16% | inhibition at 0.1 µM (hSERT): 35% | inhibition at 0.1 µM (hNET): 0%

COc1ccc(-c2ccc3c(c2)C(C)NCC3c2ccc(Cl)cc2)nn1 (stereo not shown) [Example 8, 4-(4-Chloro-phenyl)-7-(6-methoxy-pyridazin-3-yl)-1-methyl-1,2,3,4-tetrahydro-isoquinoline]
inhibition at 0.1 µM (hDAT): 30% | inhibition at 0.1 µM (hSERT): 59% | inhibition at 0.1 µM (hNET): 49%

FC(F)(F)c1ccc(-c2ccc3c(c2)CNCC3c2ccc(Cl)c(Cl)c2)nn1 (stereo not shown) [Example 11, 4-(3,4-dichlorophenyl)-7-(6-(trifluoromethyl)pyridazin-3-yl)-1,2,3,4-tetrahydroisoquinoline]
IC50 (hDAT; [1]): 80 nM | IC50 (hSERT; [2]): 10 nM | IC50 (hNET): 13 nM

N#Cc1cccc(-c2ccc3c(c2)CNCC3c2ccc(Cl)c(Cl)c2)c1 (stereo not shown) [Example 15, 3-(4-(3,4-dichlorophenyl)-1,2,3,4-tetrahydroisoquinolin-7-yl)benzonitrile]
IC50 (hDAT; [1]): 213 nM | IC50 (hSERT; [2]): 14 nM | IC50 (hNET): 86 nM

CS(=O)(=O)c1ccc(-c2ccc3c(c2)CNCC3c2ccc(Cl)c(Cl)c2)cc1 (stereo not shown) [Example 16, 4-(3,4-dichlorophenyl)-7-(4-(methylsulfonyl)phenyl)-1,2,3,4-tetrahydroisoquinoline]
IC50 (hDAT; [1]): 77 nM | IC50 (hSERT; [2]): 20 nM | IC50 (hNET): 13 nM

O=c1ccccn1-c1ccc2c(c1)CNCC2c1ccc(Cl)c(Cl)c1 (stereo not shown) [Example 17, 1-(4-(3,4-dichlorophenyl)-1,2,3,4-tetrahydroisoquinolin-7-yl)pyridin-2(1H)-one]
IC50 (hDAT; [1]): 84.7 nM | IC50 (hSERT; [2]): 6.9 nM | IC50 (hNET): 421 nM

O=c1cccnn1-c1ccc2c(c1)CNCC2c1ccc(Cl)c(Cl)c1 (stereo not shown) [Example 18, 2-(4-(3,4-dichlorophenyl)-1,2,3,4-tetrahydroisoquinolin-7-yl)pyridazin-3(2H)-one]
IC50 (hDAT; [1]): 29.9 nM | IC50 (hSERT; [2]): 6.1 nM | IC50 (hNET): 132 nM
